# Measured values published in ChEMBL document CHEMBL5375968, “Peptide TK-HR from the Skin of Chinese Folk Medicine Frog Hoplobatrachus Rugulosus Accelerates Wound Healing via the Activation of the Neurokinin-1 Receptor” (J Med Chem, 2023).
# Active and inactive are the calls of the source. The calls are words filed in the database; no cut-off is given here.
# Columns and labels:
# [1] = Induction of wound healing in BALB/c mouse model of full-thickness wounds at 50 ug/ml, TOP bid pretreated with Aprepitant for 2 hrs followed by compound administration measured after 4 days (reference value: 50.6 %); format: functional; conditions: dose 50 µg/ml, time 4 day
# HaCaT [2] = assay: Induction of cell migration in Mitomycin C-treated human HaCaT cells assessed as healing rate at 20 uM measured after 24 hrs by scratch healing assay (reference value: 21.3 %); format: functional
# HUVEC [3] = assay: Induction of cell migration in Mitomycin C-treated HUVEC cells assessed as healing rate at 20 uM measured after 24 hrs by scratch healing assay (reference value: 30.2 %); format: functional, Homo sapiens
# [4] = Induction of TGF-beta1 level in Aprepitant-treated mouse RAW264.7 cells at 10 uM incubated for 24 hrs by ELISA; format: functional
# [5] = Induction of wound healing in BALB/c mouse model of full-thickness wounds at 200 ug/ml, TOP bid measured after 8 days (reference value: 81.0 %); format: functional; conditions: dose 200 µg/ml, time 8 day
# [6] = Toxicity in BALB/c mouse model of full-thickness wounds assessed as animal death at 50 to 200 ug/ml, TOP bid measured upto 8 days; conditions: in vivo, topical_or_ocular, 192 h, dose 50-200 µg/ml, time < 8 day
# RAW264.7 [7] = assay: Upregulation of phosphorylated p38 level in mouse RAW264.7 cells at 2.5 to 20 uM incubated for 4 hrs by Western blot analysis; format: functional, cell-based; conditions: dose 2.5-20 µM
# Mus musculus [8] = species: Mus musculus; assay: Induction of wound healing in BALB/c mouse model of full-thickness wounds assessed as increase in recruitment of total macrophages in wound skin at 50 ug/ml, TOP bid measured after 2 days by IHC analysis; format: functional; conditions: dose 50.0 µg/ml, time 2.0 day
# [9] = (§1) Induction of wound healing in BALB/c mouse model of full-thickness wounds assessed as recruitment of M1-type macrophages in wound skin at 50 ug/ml, TOP bid measured after 2 days by flow cytometry (reference value: 60.9 %); format: functional; conditions: dose 50 µg/ml, time 2 day
# Mus musculus [10] = species: Mus musculus; assay: as §1; format: functional; conditions: dose 50.0 µg/ml, time 2.0 day
# [11] = Induction of wound healing in BALB/c mouse model of full-thickness wounds at 200 ug/ml, TOP bid measured after 4 days (reference value: 48.6 %); format: functional; conditions: dose 200 µg/ml, time 4 day
# NIH3T3 = assay: Effect on TGF-1beta production in mouse 3T3 cells at 5 to 40 uM incubated for 24 hrs by ELISA; format: functional, cell-based; conditions: dose 5-40 µM
# Mus musculus [12] = species: Mus musculus; assay: Induction of wound healing in BALB/c mouse model of full-thickness wounds assessed as increase in ratio of phosphorylated Smad3 level to total Smad3 level in wound skin at 50 to 200 ug/ml, TOP bid measured after 8 days by Western blot analysis; format: functional; conditions: dose 50-200 µg/ml, time 8.0 day
# Staphylococcus aureus = assay: Antimicrobial activity against Staphylococcus aureus ATCC 25923 assessed as microbial growth inhibition at 100 uM; format: functional, organism-based
# RAW264.7 [13] = assay: Upregulation of phosphorylated JNK level in Aprepitant-treated mouse RAW264.7 cells at 2.5 to 20 uM incubated for 4 hrs by Western blot analysis; format: functional, cell-based; conditions: dose 2.5-20 µM
# Mus musculus [14] = species: Mus musculus; assay: Induction of wound healing in BALB/c mouse model of full-thickness wounds assessed as increase in epidermal layer re-constuction at 50 ug/ml, TOP bid measured after 8 days by H and E staining based analysis; format: functional; conditions: dose 50.0 µg/ml, time 8.0 day
# RAW264.7 [15] = assay: Induction of MCP-1 expression in mouse RAW264.7 cells incubated for 24 hrs by ELISA; format: functional, cell-based; conditions: dose 2.5-20 µM
# [16] = Induction of wound healing in BALB/c mouse model of full-thickness wounds at 200 ug/ml, TOP bid measured after 6 days (reference value: 71.7 %); format: functional; conditions: dose 200 µg/ml, time 6 day
# HaCaT [17] = assay: Induction of cell migration in human HaCaT cells assessed as formation of filopodia extensions at 20 uM measured after 24 hrs by immunofluorescence microscopy; format: functional, cell-based
# [18] = Induction of TGF-beta1 level in Aprepitant-treated mouse RAW264.7 cells at 20 uM incubated for 24 hrs by ELISA; format: functional
# Cutibacterium acnes = assay: Antimicrobial activity against Propionibacterium acnes ATCC 6919 assessed as microbial growth inhibition at 100 uM; format: functional, organism-based
# HUVEC [19] = assay: Induction of cell migration in Mitomycin C-treated HUVEC cells assessed as healing rate at 20 uM measured after 48 hrs by scratch healing assay (reference value: 51.6 %); format: functional, Homo sapiens
# RAW264.7 [20] = assay: Induction of phagocytosis in mouse RAW264.7 cells assessed as increase in neutral red dye uptake by measuring optical density at 540 nm at 10 uM incubated for 24 hrs followed by dye addition measured after 4 hrs by absorbance based assay (reference value: 0.073); format: functional; conditions: time 28 hrs
# [21] = Induction of wound healing in BALB/c mouse model of full-thickness wounds assessed as increase in collagen deposition in wound sites at 50 to 200 ug/ml, TOP bid measured after 8 days by Masson's Trichome staining based analysis relative to control; format: functional; conditions: dose 50-200 µg/ml, time 8 day, at 50 to 200 µg/mL
# [22] = Toxicity in BALB/c mouse model of full-thickness wounds assessed as adverse effect on body weight at 50 to 200 ug/ml, TOP bid measured upto 8 days; conditions: in vivo, topical_or_ocular, 192 h, dose 50-200 µg/ml, time < 8 day
# RAW264.7 [23] = assay: Upregulation of phosphorylated ERK level in mouse RAW264.7 cells at 2.5 to 20 uM incubated for 4 hrs by Western blot analysis; format: functional, cell-based; conditions: dose 2.5-20 µM
# RAW264.7 [24] = assay: Effect on total p38 level in mouse RAW264.7 cells at 2.5 to 20 uM incubated for 4 hrs by Western blot analysis; format: functional, cell-based; conditions: dose 2.5-20 µM
# Mus musculus [25] = species: Mus musculus; assay: Induction of wound healing in BALB/c mouse model of full-thickness wounds assessed as dense arrangement of collagen fibers at 50 to 200 ug/ml, TOP bid measured after 8 days by Masson's Trichome staining based analysis; format: functional; conditions: dose 50-200 µg/ml, time 8.0 day
# [26] = Induction of wound healing in BALB/c mouse model of full-thickness wounds assessed as alpha-SMA level below wound surface at 50 to 200 ug/ml, TOP bid measured after 8 days by IHC analysis (reference value: 16.4 %); format: functional; conditions: dose 50-200 µg/ml, time 8 day, at 50 to 200 µg/mL
# RAW264.7 [27] = assay: Effect on total JNK level in mouse RAW264.7 cells at 2.5 to 20 uM incubated for 4 hrs by Western blot analysis; format: functional, cell-based; conditions: dose 2.5-20 µM
# [28] = Induction of TGF-beta1 level in mouse RAW264.7 cells at 10 uM incubated for 24 hrs by ELISA; format: functional
# [29] = Induction of wound healing in BALB/c mouse model of full-thickness wounds at 100 ug/ml, TOP bid measured after 2 days (reference value: 30.4 %); format: functional; conditions: dose 100 µg/ml, time 2 day
# RAW264.7 [30] = assay: Induction of phagocytosis in mouse RAW264.7 cells cultured with Escherichia coli ATCC 25922 assessed as number of surviving engulfed bacteria at 2.5 uM incubated for 24 hrs followed by bacterial exposure for 1 hr and further treated with gentamycin for 2 hrs by plate counting method (reference value: 37); format: functional; conditions: time 27 hrs
# Mus musculus [31] = species: Mus musculus; assay: Induction of wound healing in BALB/c mouse model of full-thickness wounds assessed as decrease in TNF-alpha level in wound skin at 50 ug/ml, TOP bid measured after 4 days by ELISA; format: functional; conditions: dose 50.0 µg/ml, time 4.0 day
substance,measurement,setting,value
H-KPNPDRFYGLM-NH2,Activity,[1],56.1%
same,Activity,HaCaT [2],40.2%
same,Activity,HUVEC [3],43.7%
same,Activity,[4],43.7 pg/mL
same,Activity,[5],100%
same,Activity,[6],Non-Toxic
same,Activity,RAW264.7 [7],Active
same,Activity,Mus musculus [8],Active
same,Activity,[9],79.2%
same,Activity,Mus musculus [10],Active
same,Activity,[11],77.1%
same,Activity,NIH3T3,inactive
same,Activity,Mus musculus [12],inactive
same,Activity,Staphylococcus aureus,inactive
same,Activity,RAW264.7 [13],inactive
same,Activity,Mus musculus [14],Active
same,Activity,RAW264.7 [15],Dose-Dependent Effect
same,Activity,[16],100%
same,Activity,HaCaT [17],Active
same,Activity,[18],46.7 pg/mL
same,Activity,Cutibacterium acnes,inactive
same,Activity,HUVEC [19],78.7%
same,OD,RAW264.7 [20],0.107
same,Activity,[21],197%
same,Activity,[22],Non-Toxic
same,Activity,RAW264.7 [23],Active
same,Activity,RAW264.7 [24],inactive
same,Activity,Mus musculus [25],Active
same,Activity,[26],40.4%
same,Activity,RAW264.7 [27],inactive
same,Activity,[28],90.7 pg/mL
same,Activity,[29],46.6%
same,Activity,RAW264.7 [30],30
same,Activity,Mus musculus [31],Active
